We go through 25 compounds from US9925189B2, “Heterocyclic receptor agonists for the treatment of diabetes and metabolic disorders” (CymaBay Therapeutics, Inc., priority 2006, dated 2018).

For this assay, the target named is T1, IC-GPCR2 (Homo sapiens, UniProt Q8TDV5, S309L).
T1 construct: expressed in transfected cells
T1 sequence (Q8TDV5 1-335 S309L): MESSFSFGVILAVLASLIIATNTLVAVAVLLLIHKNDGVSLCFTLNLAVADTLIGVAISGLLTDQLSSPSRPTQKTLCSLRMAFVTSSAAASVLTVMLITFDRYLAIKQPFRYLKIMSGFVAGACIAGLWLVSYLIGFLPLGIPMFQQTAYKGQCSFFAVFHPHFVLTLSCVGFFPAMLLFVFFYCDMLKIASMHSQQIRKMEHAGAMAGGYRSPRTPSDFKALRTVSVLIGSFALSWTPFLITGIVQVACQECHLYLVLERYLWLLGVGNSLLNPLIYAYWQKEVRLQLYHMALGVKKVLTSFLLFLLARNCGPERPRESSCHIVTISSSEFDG
Put plainly: Stimulation of cAMP in CHO cells stably expressing IC-GPCR2 (HTRF cAMP assay). Format: cell-based. To be noted: 0.5 h, 30 minutes, IC-GPCR2 stably expressing CHO cells, read-out: Activity at 10 uM (% change in FRET signal from DMSO control). How it is done: This assay was developed using a stable cell line expressing IC-GPCR-2, generated as follows. IC-GPCR2 (SEQ ID NO:1) was cloned into Gateway pDEST 40vector (Invitrogen), using the Gateway cloning system (invitrogen) according to the manufacturer's instructions. A stable cell line was generated by transfecting a 10 cm plate of CHO cells (source) with 8 ug of this construct using Transit-CHO transfection kit (Mirus). CHO cells were plated the day prior to transfection at a density of 3,000,000 cells/plate. Clones were selected using the antibiotic G418 at 500 ug/ml. 23 clones were picked and assayed for the expression of the receptor by measuring changes in intracellular cAMP levels in response to an IC-GPCR2 agonist.
To measure cAMP activity in response to IC-GPCR2 agonist, the clones were plated in 96 well plates at 17500 cells per well. On the day after plating, cells were incubated with the IC-CPCR2 agonist at […] for 30 minutes in Ham's F12 Media (Gibco) with 0.04% DMSO. cAMP was measured using the cAMP dynamic kit from Cis Bio (Bedford, Mass.) according to the manufacturer's instructions. Briefly, cells were lysed, and cAMP levels determined by competitive immunoassay using D2 labeled cAMP, and europium cryptate tagged anti cAMP antibody. When in close proximity, the D2 and europium cryptate undergo fluorescence resonance energy transfer (FRET), which is measured as a fluorescence ratio (665 nm/620 nm). Unlabelled cAMP in the cell lysate competed with the D2 labeled cAMP for the europium crypate labeled antibody. The resulting decrease in FRET signal corresponded to intracellular cAMP levels. Fluorescence was read on a BMG Labtech PHERAstar, software version 1.50.
Compounds were dissolved in 100% DMSO to a concentration of […] to provide stock solutions. To determine activity against IC-GPCR2, compounds were incubated with IC-GPCR2 stably expressing cells (described above), at 6-8 concentrations ranging from 0.00003 to 10 micromolar, in 96 well plates, in 50 ul of Hams F12 media for 30 minutes. Cells were plated at 17500 cells per well 1 day before running the assay. All compounds were also screened against the parental CHO cells. cAMP was measured using the cAMP dynamic kit from Cis Bio (Bedford, Mass.), according to the manufacturer's instructions. Briefly, cells were lysed and cAMP levels determined by competitive immunoassay using D2 labeled cAMP, and europium cryptate tagged anti cAMP antibody. When in close proximity, the D2 and europium cryptate undergo fluorescence resonance energy transfer (FRET), which is measured as a fluorescence ratio (665 nm/620 nm). Unlabelled cAMP in the cell lysate competed with the D2 labeled cAMP for the europium crypate labeled antibody. The resulting decrease in FRET signal corresponded to intracellular cAMP levels.
Activities of compounds disclosed in Table 1 and Table 2 below are expressed as the % change in FRET signal from DMSO control. “*” no activity observed when tested at 10 micromolar but no higher concentrations were tested. NT indicates the compound was not tested at the indicated concentration.

Regarding `C[C@H]1CN(C(=O)OC(C)(C)C)CC[C@H]1c1nc(COc2ccc(-n3cnnn3)cc2)cs1` (stereo in doubt) [Example 144, 3-Methyl-4-[4-(4-tetrazol-1-yl-phenoxymethyl)-thiazol-2-yl]-piperidine-1-carboxylic acid tert-butyl ester], the activation at 10 µM worked out at 81%.

Consider `C[C@H]1CN(C(=O)OC(C)(C)C)CC[C@H]1c1nc(COc2ccc(-n3cnnn3)cc2F)cs1` (stereo in doubt) [Example 145, 4-[4-(2-Fluoro-4-tetrazol-1-yl-phenoxymethyl)-thiazol-2-yl]-3-methyl-piperidine-1-carboxylic acid tert-butyl ester], for which the activation at 10 µM was found to be 73%. As for `CCc1cnc(N2CC[C@@H](c3nc(COc4ccc(-n5cnnn5)cc4)cs3)[C@@H](C)C2)nc1` (stereo in doubt) [Example 199, 5-Ethyl-2-{3-methyl-4-[4-(4-tetrazol-1-yl-phenoxymethyl)-thiazol-2-yl]-piperidin-1-yl}-pyrimidine], the activation at 10 µM amounted to 78%. For `CCc1cnc(N2CC[C@@H](c3nc(COc4ccc(-n5cnnn5)cc4F)cs3)[C@@H](C)C2)nc1` (stereo in doubt) [Example 200, 5-Ethyl-2-{4-[4-(2-fluoro-4-tetrazol-1-yl-phenoxymethyl)-thiazol-2-yl]-3-methyl-piperidin-1-yl}-pyrimidine], the activation at 10 µM stood at 82%. Turning to `C[C@H]1CN(c2ncc(Cl)cn2)CC[C@H]1c1nc(COc2ccc(-n3cnnn3)cc2F)cs1` (stereo in doubt) [Example 201, 5-Chloro-2-{4-[4-(2-fluoro-4-tetrazol-1-yl-phenoxymethyl)-thiazol-2-yl]-3-methyl-piperidin-1-yl}-pyrimidine], the activation at 10 µM is 87%. As for `C[C@H]1CN(c2ncc(C(F)(F)F)cn2)CC[C@H]1c1nc(COc2ccc(-n3cnnn3)cc2F)cs1` (stereo in doubt) [Example 202, 2-{4-[4-(2-Fluoro-4-tetrazol-1-yl-phenoxymethyl)-thiazol-2-yl]-3-methyl-piperidin-1-yl}-5-trifluoromethyl-pyrimidine], the figure is 83%; as for `CC(C)(C)OC(=O)N1CCC(c2nc(COc3ccc(S(C)(=O)=O)cc3)cs2)CC1` [Example 1, 4-[4-(4-Methanesulfonyl-phenoxymethyl)-thiazol-2-yl]-piperidine-1-carboxylic acid tert-butyl ester], 69%. Turning to `CC(C)(C)OC(=O)N1CCC(c2nc(COc3ccc(-n4ccnc4)cc3)cs2)CC1` [Example 2, 4-[4-(4-Imidazol-1-yl-phenoxymethyl)-thiazol-2-yl]-piperidine-1-carboxylic acid tert-butyl ester], the activation at 10 µM worked out at 50%.

As for `CC(=O)Nc1ccc(OCc2csc(C3CCN(C(=O)OC(C)(C)C)CC3)n2)cc1` [Example 3, 4-[4-(4-Acetylamino-phenoxymethyl)-thiazol-2-yl]-piperidine-1-carboxylic acid tert-butyl ester], the activation at 10 µM amounted to 63%. Turning to `CC(C)(C)OC(=O)N1CCC(c2nc(COc3ccc(-n4cncn4)cc3)cs2)CC1` [Example 5, 4-[4-(4-[1,2,4]Triazol-1-yl-phenoxymethyl)-thiazol-2-yl]-piperidine-1-carboxylic acid tert-butyl ester], the activation at 10 µM is 60%. In the case of `CC(C)(C)OC(=O)N1CCC(c2nc(COc3ccc(N4CCCC4=O)cc3)cs2)CC1` [Example 6, 4-{4-[4-(2-Oxo-pyrrolidin-1-yl)-phenoxymethyl]-thiazol-2-yl}-piperidine-1-carboxylic acid tert-butyl ester], the activation at 10 µM was determined as 68%. `CC(C)(C)OC(=O)N1CCC(c2nc(COc3ccc(-n4cnnn4)cc3)cs2)CC1` [Example 7, 4-[4-(4-Tetrazol-1-yl-phenoxymethyl)-thiazol-2-yl]-piperidine-1-carboxylic acid tert-butyl ester]: the activation at 10 µM amounted to 64%. As for `CCc1cnc(N2CCC(c3nc(COc4ccc(S(N)(=O)=O)cc4)cs3)CC2)nc1` [Example 9, 4-{2-[1-(5-Ethyl-pyrimidin-2-yl)-piperidin-4-yl]-thiazol-4-ylmethoxy}-benzenesulfonamide], the activation at 10 µM was 54%.

As for `CCc1cnc(N2CCC(c3nc(COc4cccc(-n5cnnn5)c4)cs3)CC2)nc1` [Example 11], the activation at 10 µM was determined as 34%. Take `CCc1cnc(N2CCC(c3nc(COc4ccc(-n5nnnc5C)cc4)cs3)CC2)nc1` [Example 12, 5-Ethyl-2-(4-{4-[4-(5-methyl-tetrazol-1-yl)-phenoxymethyl]-thiazol-2-yl}-piperidin-1-yl)-pyrimidine]: the activation at 10 µM was 70%.

Consider `CCc1cnc(N2CCC(c3nc(COc4ccc(SC)c(C)c4)cs3)CC2)nc1` [Example 13], for which the activation at 10 µM was found to be 94%. For `CCc1cnc(N2CCC(c3nc(COc4ccc(S(C)(=O)=O)c(C)c4)cs3)CC2)nc1` [Example 14, 5-Ethyl-2-{4-[4-(4-methanesulfonyl-3-methyl-phenoxymethyl)-thiazol-2-yl]-piperidin-1-yl}-pyrimidine] the value was 84%; for `CCc1cnc(N2CCC(c3nc(COc4ccc5sc(=O)oc5c4)cs3)CC2)nc1` [Example 15, 6-{2-[1-(5-Ethyl-pyrimidin-2-yl)-piperidin-4-yl]-thiazol-4-ylmethoxy}-benzo[1,3]oxathiol-2-one], 55%. With `CCc1cnc(N2CCC(c3nc(COc4ccc(SC(F)(F)F)cc4)cs3)CC2)nc1` [Example 16, 5-Ethyl-2-{4-[4-(4-trifluoromethylsulfanyl-phenoxymethyl)-thiazol-2-yl]-piperidin-1-yl}-pyrimidine], the activation at 10 µM turned out to be 56%. In the case of `CC(C)(C)OC(=O)N1CCC(c2nc(COc3ccc(-n4cnnn4)c(F)c3)cs2)CC1` [Example 17, 4-[4-(3-Fluoro-4-tetrazol-1-yl-phenoxymethyl)-thiazol-2-yl]-piperidine-1-carboxylic acid tert-butyl ester], the activation at 10 µM amounted to 69%.

Take `CC(C)(C)OC(=O)N1CCC(c2nc(COc3ccc(S(C)(=O)=O)cc3F)cs2)CC1` [Example 18, 4-[4-(2-Fluoro-4-methanesulfonyl-phenoxymethyl)-thiazol-2-yl]-piperidine-1-carboxylic acid tert-butyl ester]: the activation at 10 µM turned out to be 72%. For `CC(C)(C)OC(=O)N1CCC(c2nc(COc3ccc(-n4cnnn4)cc3F)cs2)CC1` [Example 19, 4-[4-(2-Fluoro-4-tetrazol-1-yl-phenoxymethyl)-thiazol-2-yl]-piperidine-1-carboxylic acid tert-butyl ester] the value was 76%; for `CC(C)(C)OC(=O)N1CCC(c2nc(CS(=O)(=O)c3ccc(S(C)(=O)=O)cc3)cs2)CC1` [Example 21, 4-[4-(4-Methanesulfonyl-benzenesulfonylmethyl)-thiazol-2-yl]-piperidine-1-carboxylic acid tert-butyl ester], 23%. For `CC(C)OC(=O)N1CCC(c2nc(COc3ccc(S(C)(=O)=O)cc3)cs2)CC1` [Example 22, 4-[4-(4-Methanesulfonyl-phenoxymethyl)-thiazol-2-yl]-piperidine-1-carboxylic acid isopropyl ester] the value was 62%; for `CS(=O)(=O)c1ccc(OCc2csc(C3CCN(C(=O)OCc4ccccc4)CC3)n2)cc1` [Example 23, 4-[4-(4-Methanesulfonyl-phenoxymethyl)-thiazol-2-yl]-piperidine-1-carboxylic acid benzyl ester], 37%.
